Reference: patent US20240100065A1, “METHODS FOR TREATING RECEPTOR-INTERACTING PROTEIN KINASE 1-MEDIATED DISEASES” (Genzyme Corporation, priority 2022, published 2024)
“Also recorded” adds a separate entry of the source.

Test: Plasma pharmacokinetics after single and repeated oral doses
Assay type: in vivo, healthy adult participants (human)
Conditions: for AUC ratio, point estimate / AUClast ratio, point estimate / Cmax ratio, point estimate: Part 1a fasted
Description: In Part 1a, plasma samples were collected before dosing and at 10 post-dose timepoints on Day 1 (30 minutes, 1 hour, followed by every hour until 6 hours, and then every 2 hours until 12 hours), and single samples on Day 2 (at 24 hours) and Day 3 (at 48 hours). In Part 1b, timepoints included at least pre-dose and at 10 post-dose timepoints, including plasma sampling at the same time of CSF sampling. In Part 2, on Day 1 and Day 14, plasma samples were collected at pre-dose and at 10 to 11 post-dose timepoints. In addition, plasma samples were collected on Days 2, 3, 5, 7, 11, 15, 16, and 17.
PK population included all participants exposed to Compound 1 with no major or critical deviations related to Compound 1 and for whom PK data were considered sufficient and interpretable. PK parameters were summarized by descriptive statistics for each dose level group. Distribution of Tmax values was represented by histogram plots for each dose level group. In Part 1a, dose proportionality was assessed using a linear model on Cmax, AUClast and AUC. In Part 2, all PK analyses were performed separately for each regimen (OD and BID). Steady state was assessed on Ctrough using a non-linear model. Accumulation was assessed using a linear model on log-transformed accumulation ratio. Dose proportionality was assessed using a power model on Cmax and AUCtau on Day 1 and Day 14, separately. Variance components of log-transformed Cmax and AUCtau were estimated using a linear model. In Part 1b, CSF concentration was described by dose level group and CSF to plasma unbound concentration ratios calculated were described in the same way. 4β-hydroxycholesterol on Day 14 versus Day 1 pre-dose concentration ratios were summarized using descriptive statistics by dose level group and point estimates with 90% confidence interval (90% CI) for the geometric mean of the log-transformed Day14/Day1 ratio was calculated in Part 2.

[1] = 20 mg vs. 10 mg (dose increase = 2)
[2] = 30 mg vs. 10 mg (dose increase = 3)
[3] = 30 mg vs. 20 mg (dose increase = 1.5)
[4] = 40 mg vs. 10 mg (dose increase = 4)
[5] = 40 mg vs. 20 mg (dose increase = 2)
[6] = 40 mg vs. 30 mg (dose increase = 1.33)

## CC(C)(C(=O)N1CCOc2c(C#N)cncc2C1)C(F)F [Compound 1, 4-(3,3-difluoro-2,2-dimethyl-propanoyl)-3,5-dihydro-2H-pyrido[3,4-f] [1,4]oxazepine-9-carbonitrile]
10 mg QD
  Accumulation ratio (AUC0-24h), Day 14/Day 1: 1.31
  Accumulation ratio (Cmax), Day 14/Day 1: 1.00
15 mg BID
  Accumulation ratio (AUC0-12h), Day 14/Day 1: 1.45
  Accumulation ratio (Cmax), Day 14/Day 1: 1.24
20 mg BID
  Accumulation ratio (AUC0-12h), Day 14/Day 1: 1.63
  Accumulation ratio (Cmax), Day 14/Day 1: 1.71
20 mg QD
  Accumulation ratio (AUC0-24h), Day 14/Day 1: 1.13
  Accumulation ratio (Cmax), Day 14/Day 1: 1.06
20 mg QD, MAD study, read-out: Mean observed Cmax at steady state
  Cmax: 860 nM
BID cohorts
  Within-subject variability for AUCtau: 11.3%
  Within-subject variability for Cmax: 17.9%
BID dosing regimen
  Total variability for AUCtau: 28.4%
  Total variability for Cmax: 32.2%
Day 14, 10 and 20 mg QD
  Dose proportionality: AUC0-24h (AUCtau) ratio for dose ratio (r) = 2: 1.51
  Dose proportionality: Cmax ratio for dose ratio (r) = 2: 1.58
Day 14, 15 and 20 mg BID
  Dose proportionality: AUC0-12h (AUCtau) ratio for dose ratio (r) = 1.3333: 1.32
  Dose proportionality: Cmax ratio for dose ratio (r) = 1.3333: 1.31
[1]
  AUC ratio, point estimate: 2.07
  AUClast ratio, point estimate: 2.11
  Cmax ratio, point estimate: 2.08
[2]
  AUC ratio, point estimate: 2.09
  AUClast ratio, point estimate: 2.16
  Cmax ratio, point estimate: 3.60
[3]
  AUC ratio, point estimate: 1.01
  AUClast ratio, point estimate: 1.02
  Cmax ratio, point estimate: 1.73
[4]
  AUC ratio, point estimate: 4.43
  AUClast ratio, point estimate: 4.56
  Cmax ratio, point estimate: 4.79
[5]
  AUC ratio, point estimate: 2.15
  AUClast ratio, point estimate: 2.16
  Cmax ratio, point estimate: 2.31
[6]
  AUC ratio, point estimate: 2.12
  AUClast ratio, point estimate: 2.11
  Cmax ratio, point estimate: 1.33
Part 1a single 10 mg fasted
  AUC, GM: 1170 ng·h/mL
  CL/F, GM: 8.56 L/h
  CL/F, mean: 9.11 L/h
  Cmax, GM: 116 ng/mL
  T1/2z, GM: 7.97 h
  T1/2z, mean: 8.22 h
  Tlast, median: 48.0 h
  Tmax, median: 1.02 h
Part 1a single 20 mg fasted
  AUC, GM: 2410 ng·h/mL
  AUC, mean: 2450 ng·h/mL
  AUClast, GM: 2360 ng·h/mL
  AUClast, mean: 2400 ng·h/mL
  CL/F, GM: 8.28 L/h
  CL/F, mean: 8.43 L/h
  Cmax, GM: 241 ng/mL
  T1/2z, GM: 7.48 h
  T1/2z, mean: 7.63 h
  Tlast, median: 48.0 h
  Tmax, median: 1.50 h
Part 1a single 30 mg fasted
  AUC, GM: 2440 ng·h/mL
  AUClast, GM: 2420 ng·h/mL
  CL/F, GM: 12.3 L/h
  CL/F, mean: 13.1 L/h
  Cmax, GM: 417 ng/mL
  T1/2z, GM: 5.70 h
  T1/2z, mean: 5.99 h
  Tlast, median: 48.0 h
  Tmax, median: 1.00 h
Part 1a single 40 mg fasted
  AUC, GM: 5180 ng·h/mL
  AUClast, GM: 5120 ng·h/mL
  CL/F, GM: 7.72 L/h
  CL/F, mean: 8.15 L/h
  Cmax, GM: 555 ng/mL
  T1/2z, GM: 6.29 h
  T1/2z, mean: 6.40 h
  Tlast, median: 48.0 h
  Tmax, median: 1.50 h
Part 1a, between 10 and 40 mg
  Dose proportionality of exposures: no major deviation from dose proportionality; also recorded: increased according to dose proportionality
Part 1b single 10 mg fed
  AUC, GM: 1370 ng·h/mL
  AUClast, GM: 1170 ng·h/mL
  CL/F, GM: 7.27 L/h
  CL/F, mean: 7.63 L/h
  Cmax, GM: 111 ng/mL
  Cmax, mean: 115 ng/mL
  T1/2z, GM: 7.97 h
  T1/2z, mean: 8.09 h
  Tlast, median: 24.0 h
  Tmax, median: 4.24 h
Part 1b single 40 mg fed
  AUC, GM: 4740 ng·h/mL
  AUClast, GM: 3960 ng·h/mL
  CL/F, GM: 8.43 L/h
  CL/F, mean: 8.92 L/h
  Cmax, GM: 374 ng/mL
  T1/2z, GM: 8.03 h
  T1/2z, mean: 8.31 h
  Tlast, median: 24.0 h
  Tmax, median: 4.5 h
Part 2, Day 14
  Mean T1/2z across doses and regimens: 7.3 to 9.1 h
Part 2, after first administration, irrespective of dose or regimen
  Median time to steady state of plasma concentrations: 1.4 to 2 days
